One test concerns OCI-LY10 cells. The test is described as follows: OCI-Ly10 cell proliferation, Alamar Blue (resazurin), 72 hours. It counts as cell-based. On the procedure:
OCI-Ly10 cells were cultured in Iscove's DMEM supplemented with 20% fetal bovine serum and IX penicillin/streptomycin/glutamine. The cells were maintained in T175 flasks under 5% CO2 in a 37° C. humidified incubator for 5 days prior to plating and assay.
Cells were pooled by centrifugation (200 ref, 8 minutes) and resuspended in fresh medium to a concentration of 2.00E+05 cells/ml. 200 μl of the cell suspension was added to each well (40,000 cells/well) of a black-walled 96 well plate to which 1 μl of compound (n=3 per concentration) in 100% DMSO (0.5% final concentration) was added per well. Vehicle and cell free wells were also included in the assay. The dosed cells were cultured under normal conditions for 72 hours.
Cell proliferation is measured using the dye Alamar Blue (resazurin). Resazurin is reduced to resorufin by cellular enzymes and is fluorescent (544 nm excitation, 612 nm emission). Fluorescence intensity is proportional to cell number. Resazurin was prepared in PBS to a stock concentration of 440 μM. 40 μl of the 440 μM resazurin stock solution was added 3 hours prior to the 72 hour termination of the assay. The plate was returned to normal culture conditions and fluorescence measurements were collected using a Cytation3 multimode plate reader (Biotek) at 72 hours.
The scale utilized in Table 8 is as follows: ++ less than 50 nM and + greater than 50 nM.
(In general: Alamar Blue is a resazurin reagent that responds to reducing activity.)

For the next test, the target named is BTK (Homo sapiens (Human), UniProt Q06187). Kind of test: Z'-LYTE kinase inhibition assay against BTK. It counts as biochemical. The conditions noted are these: compound at 100 nM; ATP concentration at Km. How it is done: Inhibitory activities of compounds against BTK, EGFR T790M, EGFR L858R, and EGFR L858R/T790M were measured using Z′-LYTE® Method from Life Technologies as briefly described in the following.
Test Compounds are screened in […] DMSO (final) in the well. For 10 point titrations, 3-fold serial dilutions are conducted from the starting concentration. All ATP Solutions are diluted to a 4× working concentration in Kinase Buffer (50 mM HEPES pH 7.5, 0.01% BRIJ-35, 10 mM MgCl2, 1 mM EGTA). Peptide/Kinase Mixtures are diluted to a 2× working concentration in the appropriate Kinase Buffers as described below. • (i) Peptide/Kinase Mixtures for measurement of EGFR (ErbB1) L858R: • The 2×EGFR (ErbB1) L858R/Tyr 04 mixture is prepared in 50 mM HEPES pH 7.5, 0.01% BRIJ-35, 10 mM MgCl2, 4 mM MnCl2, 1 mM EGTA, 2 mM DTT. The final 10 μL Kinase Reaction consists of 0.2-1.68 ng EGFR (ErbB1) L858R and 2 μM Tyr 04 in 50 mM HEPES pH 7.5, 0.01% BRIJ-35, 10 mM MgCl2, 2 mM MnCl2, 1 mM EGTA, 1 mM DTT. After the 1 hour Kinase Reaction incubation, 5 μL of a 1:64 dilution of Development Reagent B is added. • (ii) Peptide/Kinase Mixtures for measurement of EGFR (ErbB1) T790M: The 2×EGFR (ErbB1) T790M/Tyr 04 mixture is prepared in 50 mM HEPES pH 6.5, 0.01% BRIJ-35, 10 mM MgCl2, 1 mM EGTA, 0.02% NaN3. The final 10 μL Kinase Reaction consists of 3.9-30.2 ng EGFR (ErbB1) T790M and 2 μM Tyr 04 in 50 mM HEPES pH 7.0, 0.01% BRIJ-35, 10 mM MgCl2, 1 mM EGTA, 0.01% NaN3. After the 1 hour Kinase Reaction incubation, 5 μL of a 1:64 dilution of Development Reagent B is added. • (iii) Peptide/Kinase Mixtures for measurement of EGFR (ErbB1) L858R/T790M: The 2×EGFR (ErbB1) T790M L858R/Tyr 04 mixture is prepared in 50 mM HEPES pH 6.5, 0.01% BRIJ-35, 10 mM MgCl2, 1 mM EGTA, 0.02% NaN3. The final 10 μL Kinase Reaction consists of 0.38-4.22 ng EGFR (ErbB1) T790M L858R and 2 μM Tyr 04 in 50 mM HEPES pH 7.0, 0.01% BRIJ-35, 10 mM MgCl2, 1 mM EGTA, 0.01% NaN3. After the 1 hour Kinase Reaction incubation, 5 μL of a 1:64 dilution of Development Reagent B is added. • (iv) Peptide/Kinase Mixtures for measurement of BTK: The 2×BTK/Tyr 01 mixture is prepared in 50 mM HEPES pH 7.5, 0.01% BRIJ-35, 10 mM MgCl2, 1 mM EGTA. […]
Reaction starts by 30-second shaking of mixture consisting of 2.5 μL 4× test compound, 5 μL 2× kinase reaction mixture and 2.5 μL 4×ATP Solution on Bar-coded Corning, low volume NBS, black 384-well plate (Corning Cat. #3676). […] Finally fluorescence is read by plate reader. […]
To determine IC50 of a compound against a kinase, a series of concentrations of the compound were tested for the inhibition. IC50 was calculated by plotting the concentration of compound vs the percentage of inhibition in treated wells using GraphPad Prism 5. […]

Bounds are passed on as bounds.

Sequence of BTK (Q06187 whole entry): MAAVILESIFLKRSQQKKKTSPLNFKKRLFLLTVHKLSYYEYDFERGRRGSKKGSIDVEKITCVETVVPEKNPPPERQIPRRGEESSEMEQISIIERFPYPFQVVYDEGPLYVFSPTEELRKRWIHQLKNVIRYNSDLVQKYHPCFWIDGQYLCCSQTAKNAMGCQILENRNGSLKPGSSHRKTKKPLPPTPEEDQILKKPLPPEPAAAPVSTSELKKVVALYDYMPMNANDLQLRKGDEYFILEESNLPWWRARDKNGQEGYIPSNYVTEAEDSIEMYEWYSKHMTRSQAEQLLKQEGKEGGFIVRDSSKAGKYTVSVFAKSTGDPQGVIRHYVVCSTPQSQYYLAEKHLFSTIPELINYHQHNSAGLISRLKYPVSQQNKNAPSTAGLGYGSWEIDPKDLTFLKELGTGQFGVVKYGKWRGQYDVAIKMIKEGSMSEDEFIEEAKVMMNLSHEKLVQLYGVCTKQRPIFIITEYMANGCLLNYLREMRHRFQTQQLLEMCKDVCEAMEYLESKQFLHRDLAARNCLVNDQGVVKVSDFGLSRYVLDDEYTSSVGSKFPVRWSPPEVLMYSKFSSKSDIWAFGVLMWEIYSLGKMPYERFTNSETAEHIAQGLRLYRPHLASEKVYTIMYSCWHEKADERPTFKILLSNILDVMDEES

By IC50 is commonly meant the concentration at which inhibition is half-maximal. `C=CC(=O)Nc1cccc(-c2cc(-c3cccnc3)cc3cnc(N)nc23)c1` [Example C035, N-(3-(2-amino-6-(pyridin-3-yl)quinazolin-8-yl)phenyl)-acrylamide]: the IC50 in the test on OCI-LY10 cells was more than 50 nM. In addition, the “% Inhibition against BTK” value on BTK was “++ (more than 50% inhibition)”.
`C=CC(=O)Nc1cccc(-c2cc(-c3ccc(C(=O)Nc4ccccc4)nc3)cc3cnc(N)nc23)c1` [Example C059, 5-(8-(3-acrylamidophenyl)-2-aminoquinazolin-6-yl)-N-phenylpicolinamide]: the “% Inhibition against BTK” value on BTK was “+ (less than 50% inhibition)”.
Still for that read-out and setting: next, `C=CC(=O)N1CCC(c2cc(-c3ccc(C(=O)Nc4cccc(F)c4)nc3)cc3cncnc23)C1` (stereo not drawn) [Example C097, 5-(8-(1-acryloylpyrrolidin-3-yl)quinazolin-6-yl)-N-(3-fluorophenyl)picolinamide]: “+ (less than 50% inhibition)”.
`C=CC(=O)Nc1cccc(-c2cc(-c3ccc(Oc4ncccc4F)cc3F)cc3cncnc23)c1` [Example C105, N-(3-(6-(2-fluoro-4-((3-fluoropyridin-2-yl)oxy)-phenyl)quinazolin-8-yl)-phenyl)acrylamide] came in with an IC50 in the test on OCI-LY10 cells of less than 50 nM. In addition, the “% Inhibition against BTK” value on BTK was “++ (more than 50% inhibition)”.

These data come from US11208388B2, “Certain chemical entities, compositions, and methods” (NeuPharma, Inc., priority 2016, dated 2021).
